Source: US20250221988A1 (Cullgen (Shanghai), Inc., priority 2022, published 2025)
Like-named read-outs stand apart in the source and are kept apart here.

Columns and labels:
MOLM-13 cells = assay: Cell viability assay (CellTiter-Glo) in MOLM-13 cells; assay type: cell-based
MV4;11 cells = assay: Cell viability assay (CellTiter-Glo) in MV4;11 cells; assay type: cell-based; conditions: read-out: MV4
In short: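 After three days' exposure to 3-fold serial compound dilutions (8 or 12 points), viability of cells seeded at 5000/well is read by CellTiter-Glo. Runs were done alone or combined with gilteritinib at 10 nM (MV4;11) or 20 nM (MOLM-13); IC50 from nonlinear regression.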

[1] = Homo sapiens, 72 h, MOLM-13 cells, compound alone, three days, read-out: MOLM-13 IC50
[2] = MOLM-13 cells, with gilteritinib, three days, read-out: MOLM-13 IC50 (nM) + 10 nM Gil
[3] = Homo sapiens, MV4-11, 72 h, MV4;11 cells, compound alone, three days, 11 IC50
[4] = MV4;11 cells, with 10 nM gilteritinib, three days, 11 IC50 (nM) + 10 nM Gil

Row | SMILES | IC50 (MOLM-13 cells; [1]) [nM] | IC50 (MOLM-13 cells; [2]) [nM] | IC50 (MV4;11 cells; [3]) [nM] | IC50 (MV4;11 cells; [4]) [nM] | IC50 (MOLM-13 cells; Homo sapiens, MOLM-13, 72 h, read-out: MOLM-13 IC50 (nM)) [nM] | sensitization of AML cells to GSPT1 degraders by FLT3 inhibition (MOLM-13 cells; MOLM-13 cells, with or without 20 nM gilteritinib, 3 days) | IC50 (MOLM-13 cells; read-out: MOLM-13 IC50 (nM) + 10 nM Gil, MOLM-13 cells, with gilteritinib, three days) [nM] | IC50 (MV4;11 cells; Homo sapiens, MV4-11, 72 h, 11 IC50 (nM)) [nM] | IC50 (MV4;11 cells; 11 IC50 (nM) + 10 nM Gil, MV4;11 cells, with 10 nM gilteritinib, three days) [nM]
1 | Cn1ccnc1-c1cn([C@H]2C[C@H](CNc3ccc4c(c3)C(=O)N(C3CCC(=O)NC3=O)C4=O)C2)nc1C1CC1 (stereo partly drawn) [GS-687, 5-(((Trans-3-(3-cyclopropyl-4-(1-methyl-1H-imidazol-2-yl)-1H-pyrazol-1-yl)cyclobutyl)methyl)amino)-2-(2,6-dioxopiperidin-3-yl)isoindoline-1,3-dione] | > 1000 | 100 to 1000 | > 1000 | 100 to 1000 |  |  |  |  | 
2 | Cc1c2ccccc2nn1[C@H]1C[C@H](CNc2ccc3c(c2)C(=O)N(C2CCC(=O)NC2=O)C3=O)C1 (stereo partly drawn) [GS-688, 2-(2,6-Dioxopiperidin-3-yl)-5-(((trans-3-(3-methyl-2H-indazol-2-yl)cyclobutyl)methyl)amino)isoindoline-1,3-dione] | > 1000 | 100 to 1000 | > 1000 |  |  |  |  |  | 
3 | Cc1nn([C@H]2C[C@H](CNc3ccc4c(c3)C(=O)N(C3CCC(=O)NC3=O)C4=O)C2)c2ccccc12 (stereo partly drawn) [GS-689, 2-(2,6-Dioxopiperidin-3-yl)-5-(((trans-3-(3-methyl-1H-indazol-1-yl)cyclobutyl)methyl)amino)isoindoline-1,3-dione] | 100 to 1000 | 10 to 100 | 10 to 100 | 10 to 100 |  |  |  |  | 
4 | Cn1nccc1-c1cn([C@H]2C[C@H](CNc3ccc4c(c3)C(=O)N(C3CCC(=O)NC3=O)C4=O)C2)nc1C1CC1 (stereo partly drawn) [GS-690, 5-(((Trans-3-(3′-cyclopropyl-2-methyl-1′H,2H-[3,4′-bipyrazol]-1′-yl)cyclobutyl)methyl)amino)-2-(2,6-dioxopiperidin-3-yl)isoindoline-1,3-dione] | > 1000 |  | > 1000 |  |  |  |  |  | 
5 | Cn1cncc1-c1cn([C@H]2C[C@H](CNc3ccc4c(c3)C(=O)N(C3CCC(=O)NC3=O)C4=O)C2)nc1C1CC1 (stereo partly drawn) [GS-691, 5-(((Trans-3-(3-cyclopropyl-4-(1-methyl-1H-imidazol-5-yl)-1H-pyrazol-1-yl)cyclobutyl)methyl)amino)-2-(2,6-dioxopiperidin-3-yl)isoindoline-1,3-dione] | > 1000 |  | > 1000 |  |  |  |  |  | 
6 | Cc1cccc2cnn([C@H]3C[C@H](CNc4ccc5c(c4)C(=O)N(C4CCC(=O)NC4=O)C5=O)C3)c12 (stereo partly drawn) [GS-693, 2-(2,6-Dioxopiperidin-3-yl)-5-(((trans-3-(7-methyl-1H-indazol-1-yl)cyclobutyl)methyl)amino)isoindoline-1,3-dione] | > 1000 | 100 to 1000 | > 1000 | 100 to 1000 |  |  |  |  | 
7 | Cc1cccc2cn([C@H]3C[C@H](CNc4ccc5c(c4)C(=O)N(C4CCC(=O)NC4=O)C5=O)C3)nc12 (stereo partly drawn) [GS-694, 2-(2,6-Dioxopiperidin-3-yl)-5-(((trans-3-(7-methyl-2H-indazol-2-yl)cyclobutyl)methyl)amino)isoindoline-1,3-dione] | > 1000 | 100 to 1000 | > 1000 | 100 to 1000 |  |  |  |  | 
8 | Cn1ccc2nc(-c3cn([C@H]4C[C@H](CNc5ccc6c(c5)C(=O)N(C5CCC(=O)NC5=O)C6=O)C4)nc3C3CC3)ccc21 (stereo partly drawn) [GS-695, 5-(((Trans-3-(3-cyclopropyl-4-(1-methyl-1H-pyrrolo[3,2-b]pyridin-5-yl)-1H-pyrazol-1-yl)cyclobutyl)methyl)amino)-2-(2,6-dioxopiperidin-3-yl)isoindoline-1,3-dione] | 10 to 100 | < 10 | 10 to 100 | < 10 |  |  |  |  | 
9 | CC(C)n1ccc2nc(-c3cn([C@H]4C[C@H](CNc5ccc6c(c5)C(=O)N(C5CCC(=O)NC5=O)C6=O)C4)nc3C3CC3)ccc21 (stereo partly drawn) [GS-696, 5-(((Trans-3-(3-cyclopropyl-4-(1-isopropyl-1H-pyrrolo[3,2-b]pyridin-5-yl)-1H-pyrazol-1-yl)cyclobutyl)methyl)amino)-2-(2,6-dioxopiperidin-3-yl)isoindoline-1,3-dione] | > 1000 | 10 to 100 | 100 to 1000 | 10 to 100 |  |  |  |  | 
10 | Cn1ncc2nc(-c3cn([C@H]4C[C@H](CNc5ccc6c(c5)C(=O)N(C5CCC(=O)NC5=O)C6=O)C4)nc3C3CC3)ccc21 (stereo partly drawn) [GS-699, 5-(((Trans-3-(3-cyclopropyl-4-(1-methyl-1H-pyrazolo[4,3-b]pyridin-5-yl)-1H-pyrazol-1-yl)cyclobutyl)methyl)amino)-2-(2,6-dioxopiperidin-3-yl)isoindoline-1,3-dione] | 100 to 1000 | 10 to 100 | 10 to 100 | 10 to 100 |  |  |  |  | 
11 | CC(C)n1ncc2nc(-c3cn([C@H]4C[C@H](CNc5ccc6c(c5)C(=O)N(C5CCC(=O)NC5=O)C6=O)C4)nc3C3CC3)ccc21 (stereo partly drawn) [GS-700, 5-(((Trans-3-(3-cyclopropyl-4-(1-isopropyl-1H-pyrazolo[4,3-b]pyridin-5-yl)-1H-pyrazol-1-yl)cyclobutyl)methyl)amino)-2-(2,6-dioxopiperidin-3-yl)isoindoline-1,3-dione] | 100 to 1000 | 10 to 100 | 100 to 1000 | 10 to 100 |  |  |  |  | 
12 | O=C1CCC(N2C(=O)c3ccc(NC[C@H]4C[C@H](n5cc(C6CCC(O)CC6)c(C6CC6)n5)C4)cc3C2=O)C(=O)N1 (stereo partly drawn) [GS-701, 5-(((Trans-3-(3-cyclopropyl-4-(4-hydroxycyclohexyl)-1H-pyrazol-1-yl)cyclobutyl)methyl)amino)-2-(2,6-dioxopiperidin-3-yl)isoindoline-1,3-dione] | 100 to 1000 | 10 to 100 | 10 to 100 | 10 to 100 |  |  |  |  | 
13 | O=C1CCC(N2C(=O)c3ccc(NCC4CC(n5cc(-c6cnc7c(NCC(O)CO)cccc7n6)c(C6CC6)n5)C4)cc3C2=O)C(=O)N1 (stereo not drawn) [GS-702, 5-(((trans-3-(3-cyclopropyl-4-(5-((2,3-dihydroxypropyl)amino)quinoxalin-2-yl)-1-pyrazol-1-yl)cyclobutyl)methyl)amino)-2-(2,6-dioxopiperidin-3-yl)isoindoline-1,3-dione] | < 10 | < 10 | < 10 | < 10 |  |  |  |  | 
14 | O=C1CCC(N2C(=O)c3ccc(NC[C@H]4C[C@H](n5cc(C6CCCC(O)C6)c(C6CC6)n5)C4)cc3C2=O)C(=O)N1 (stereo partly drawn) [GS-703, 5-(((Trans-3-(3-cyclopropyl-4-(3-hydroxycyclohexyl)-1H-pyrazol-1-yl)cyclobutyl)methyl)amino)-2-(2,6-dioxopiperidin-3-yl)isoindoline-1,3-dione] | 100 to 1000 | 10 to 100 | 10 to 100 | 10 to 100 |  |  |  |  | 
15 | O=C1CCC(N2C(=O)c3ccc(NC[C@H]4C[C@H](n5cc(-c6ccc7c(n6)CCC7O)c(C6CC6)n5)C4)cc3C2=O)C(=O)N1 (stereo partly drawn) [GS-705, 5-(((Trans-3-(3-cyclopropyl-4-(5-hydroxy-6,7-dihydro-5H-cyclopenta[b]pyridin-2-yl)-1H-pyrazol-1-yl)cyclobutyl)methyl)amino)-2-(2,6-dioxopiperidin-3-yl)isoindoline-1,3-dione] | 100 to 1000 | 100 to 1000 | > 1000 | 100 to 1000 |  |  |  |  | 
16 | NC1CCN(c2ccc3ncc(-c4cn([C@H]5C[C@H](CNc6ccc7c(c6)C(=O)N(C6CCC(=O)NC6=O)C7=O)C5)nc4C4CC4)nc3c2)C1 (stereo partly drawn) [GS-706, 5-(((Trans-3-(4-(7-(3-aminopyrrolidin-1-yl)quinoxalin-2-yl)-3-cyclopropyl-1H-pyrazol-1-yl)cyclobutyl)methyl)amino)-2-(2,6-dioxopiperidin-3-yl)isoindoline-1,3-dione] | 10 to 100 | < 10 | 10 to 100 | < 10 |  |  |  |  | 
17 | CN(C)c1nc(-c2cn([C@H]3C[C@H](CNc4ccc5c(c4)C(=O)N(C4CCC(=O)NC4=O)C5=O)C3)nc2C2CC2)ccc1F (stereo partly drawn) [GS-707, 5-(((Trans-3-(3-cyclopropyl-4-(6-(dimethylamino)-5-fluoropyridin-2-yl)-1H-pyrazol-1-yl)cyclobutyl)methyl)amino)-2-(2,6-dioxopiperidin-3-yl)isoindoline-1,3-dione] |  |  |  |  | 10 to 100 | FLT3 inhibition sensitizes AML cells | 10 to 100 | 10 to 100 | < 10
18 | O=C1CCC(N2C(=O)c3ccc(NC[C@H]4C[C@H](n5cc(NC6CCOCC6)c(C6CC6)n5)C4)cc3C2=O)C(=O)N1 (stereo partly drawn) [GS-708, 5-(((Trans-3-(3-cyclopropyl-4-((tetrahydro-2H-pyran-4-yl)amino)-1H-pyrazol-1-yl)cyclobutyl)methyl)amino)-2-(2,6-dioxopiperidin-3-yl)isoindoline-1,3-dione] | > 1000 | 100 to 1000 | > 1000 |  |  |  |  |  | 
19 | O=C1CCC(N2C(=O)c3ccc(NC[C@H]4C[C@H](n5cc(NC6CCC(O)CC6)c(C6CC6)n5)C4)cc3C2=O)C(=O)N1 (stereo partly drawn) [GS-709, 5-(((Trans-3-(3-cyclopropyl-4-((4-hydroxycyclohexyl)amino)-1H-pyrazol-1-yl)cyclobutyl)methyl)amino)-2-(2,6-dioxopiperidin-3-yl)isoindoline-1,3-dione] | > 1000 |  | > 1000 |  |  |  |  |  | 
20 | O=C1CCC(N2C(=O)c3ccc(NC[C@H]4C[C@H](n5cc(-c6cnc7c(NC(CO)CO)cccc7n6)c(C6CC6)n5)C4)cc3C2=O)C(=O)N1 (stereo partly drawn) [GS-710, 5-(((Trans-3-(3-cyclopropyl-4-(5-((1,3-dihydroxypropan-2-yl)amino)quinoxalin-2-yl)-1H-pyrazol-1-yl)cyclobutyl)methyl)amino)-2-(2,6-dioxopiperidin-3-yl)isoindoline-1,3-dione] | 10 to 100 | < 10 | 10 to 100 | < 10 |  |  |  |  | 
